According to PMC11858513, “Antibiofilm Activities of Tritrpticin Analogs Against Pathogenic Pseudomonas aeruginosa PA01 Strains” (Molecules, 2025):
≈ marks a conversion by molar mass, not a printed value. Where two headings read alike, the source gives them in different places. Residues, ends and D or L forms follow the SMILES beside them.

Assays:
S. aureus GFP [1] = type: cell-based, Staphylococcus aureus; details: Table 4; Sa GFP; lowest concentration of peptide with no bacterial growth seen on the spot agar plate
S. aureus GFP [2] = assay: MBIC, GFP fluorescence method; type: cell-based, Staphylococcus aureus; details: Table 4, Sa GFP, 10% TSB and 0.1% glucose, mean of three biological replicates
In short: (§1)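 GFP-expressing S. aureus, triplicate biological replicates. MIC on planktonic cells by absorbance at 600 nm. MBIC and MBEC from biofilm GFP fluorescence (480/530 nm), with untreated growth and media-only controls.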

S. aureus GFP [3] = assay: MIC against planktonic cells, absorbance at 600 nm; type: cell-based, Staphylococcus aureus; details: Table 4; Sa GFP, 10% TSB and 0.1% glucose; absorbance 600 nm; mean of three biological replicates
In short: as §1

P. aeruginosa PAO1 GFP [4] = assay: MIC against planktonic cells, absorbance at 600 nm; type: cell-based, Pseudomonas aeruginosa; details: Table 2, BM2 medium, absorbance 600 nm, mean of three biological replicates
In short: (§2)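 GFP-expressing P. aeruginosa PAO1 exposed to peptides; planktonic MIC read by absorbance at 600 nm, while MBIC (prevention) and MBEC (eradication) used biofilm GFP fluorescence at 480/530 nm. Triplicate biological replicates averaged, with untreated growth and medium-only controls on each plate.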

S. aureus GFP [5] = assay: MBEC, GFP fluorescence method; type: cell-based, Staphylococcus aureus; details: Table 4, Sa GFP, 10% TSB and 0.1% glucose, mean of three biological replicates
In short: as §1

P. aeruginosa PAO1 [6] = type: cell-based, Pseudomonas aeruginosa; details: Table 5; regular PAO1 (no GFP), 1x BM2; absorbance 600 nm; mean of three biological replicates
In short: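 PAO1 tested with peptides in 1× BM2; planktonic growth read at 600 nm, biofilm quantified by 0.1% crystal violet staining (15 min), ethanol release and 595 nm reading, using a Calgary biofilm device. Values are means of three replicates with untreated-growth and medium-only controls.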

P. aeruginosa PAO1 [7] = type: cell-based
In short: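 Peptides tested against P. aeruginosa PAO1 in 1× BM2 medium; planktonic growth read at 600 nm for MIC. Biofilm inhibition and eradication quantified by 0.1% crystal violet staining (15 min), ethanol release, absorbance at 595 nm, plus GFP-fluorescence and Calgary peg-device methods; triplicate means.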

P. aeruginosa PAO1 [8] = type: cell-based, Pseudomonas aeruginosa; details: Table 5; PAO1, 1x BM2; biofilms on pegs, cells plated and counted; three biological replicates
In short: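 Biofilm eradication (MBEC) for peptides against P. aeruginosa PAO1 in 1× BM2 medium, from counts of biofilm cells; GFP-producing strain fluorescence, crystal violet staining and Calgary peg device also used. Three biological replicates, mean ± SD, with untreated growth and medium-only controls.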

P. aeruginosa PAO1 GFP [9] = assay: MBEC, biofilm eradication, GFP fluorescence method; type: cell-based, Pseudomonas aeruginosa; details: Table 2, BM2 medium, mean of three biological replicates
In short: as §2

P. aeruginosa PAO1 GFP [10] = assay: MBIC, prevention of biofilm formation, GFP fluorescence method; type: cell-based, Pseudomonas aeruginosa; details: Table 2, BM2 medium, mean of three biological replicates
In short: as §2

red blood cells = details: cited from earlier work
Source text: (§3) Overall, our work highlights the potential of […] analogs in comparison to related Trp-rich AMPs as potent antibiofilm peptides that can interfere in biofilms produced by P. aeruginosa and potentially other Gram-negative pathogenic bacteria. New antibiofilm agents are welcome for this organism, as P. aeruginosa is well-known to have numerous mechanisms to elude the action of antibiotics during biofilm formation. Various factors can influence the suitability of AMPs to act as bactericidal and antibiofilm peptides simultaneously (for a general discussion see, for example, [74]). One ...

[11] = test system: peripheral blood mononuclear cells (PBMCs); details: cited from earlier work
Source text: as §3

[12] = Table 5, PAO1, 1x BM2, crystal violet at 595 nm, mean of three biological replicates
[13] = Table 5, minimum biofilm reduction concentration, PAO1, 1x BM2, crystal violet at 595 nm, mean of three biological replicates

Row | Compound | MBC Agar Plate (S. aureus GFP [1]) | MBIC at 488 and 530 nm LD50 (S. aureus GFP [2]) | MBIC at 488 and 530 nm LD90 (S. aureus GFP [2]) | MIC at 600 nm LD50 (S. aureus GFP [3]) | MIC at 600 nm LD90 (S. aureus GFP [3]) | MIC at 600 nm LD50 (P. aeruginosa PAO1 GFP [4]) | MIC at 600 nm LD90 (P. aeruginosa PAO1 GFP [4]) | MBEC at 488 and 530 nm LD50 (S. aureus GFP [5]) | MBEC at 488 and 530 nm LD90 (S. aureus GFP [5]) | MIC at 600 nm LD50 (P. aeruginosa PAO1 [6]) | MIC at 600 nm LD90 (P. aeruginosa PAO1 [6]) | MBRC (CV at 595 nm) LD50 (P. aeruginosa PAO1 [7]; PAO1) | MBIC (CV at 595 nm) LD90 (P. aeruginosa PAO1 [7]; [12]) | MBRC (CV at 595 nm) LD90 (P. aeruginosa PAO1 [7]; [13]) | MBEC from Calgary Biofilm Device (CBD) LD50 (P. aeruginosa PAO1 [8]) | MBEC from Calgary Biofilm Device (CBD) LD90 (P. aeruginosa PAO1 [8]) | MBEC at 488 and 530 nm LD50 (P. aeruginosa PAO1 GFP [9]) | MBEC at 488 and 530 nm LD90 (P. aeruginosa PAO1 GFP [9]) | MBIC at 488 and 530 nm LD50 (P. aeruginosa PAO1 GFP [10]) | MBIC at 488 and 530 nm LD90 (P. aeruginosa PAO1 GFP [10]) | further results
1 | CC(C)C[C@H](NC(=O)[C@H](Cc1ccccc1)NC(=O)[C@H](C)NC(=O)[C@H](Cc1c[nH]c2ccccc12)NC(=O)[C@H](Cc1c[nH]c2ccccc12)NC(=O)[C@H](Cc1c[nH]c2ccccc12)NC(=O)[C@H](C)NC(=O)[C@H](Cc1ccccc1)NC(=O)[C@H](CCCNC(=N)N)NC(=O)[C@H](CCCNC(=N)N)NC(=O)[C@@H](N)C(C)C)C(=O)N[C@@H](CCCNC(=N)N)C(=O)N[C@@H](CCCNC(=N)N)C(N)=O [Tritrp-P59A] (H-VRRFAWWWAFLRR-NH2) | 4 µM (≈ 7.4 µg/mL) | 2 µmol/L | 2 µmol/L | 1 µM (≈ 1.85 µg/mL) | 2 µM (≈ 3.7 µg/mL) | 2 µM (≈ 3.7 µg/mL) | 4 µM (≈ 7.4 µg/mL) | 1 µmol/L | 2 µmol/L | 2 µM (≈ 3.7 µg/mL) | 4 µM (≈ 7.4 µg/mL) | 32 µmol/L | 4 µmol/L | 32 µmol/L | 16 µmol/L | 32 µmol/L | 8 µmol/L | 16 µmol/L | 2 µmol/L | 4 µmol/L | MBIC (CV at 595 nm) LD50 (P. aeruginosa PAO1 [7]; PAO1): 4 µmol/L; hemolytic activity (red blood cells): relatively strong; cytotoxicity activities against PBMCs [11]: quite strong
2 | CC(C)C[C@H](NC(=O)[C@H](Cc1ccccc1)NC(=O)[C@@H]1CCCN1C(=O)[C@H](Cc1ccc(O)cc1)NC(=O)[C@H](Cc1ccc(O)cc1)NC(=O)[C@H](Cc1ccc(O)cc1)NC(=O)[C@@H]1CCCN1C(=O)[C@H](Cc1ccccc1)NC(=O)[C@H](CCCNC(=N)N)NC(=O)[C@H](CCCNC(=N)N)NC(=O)[C@@H](N)C(C)C)C(=O)N[C@@H](CCCNC(=N)N)C(=O)N[C@@H](CCCNC(=N)N)C(N)=O [Tritrp-W678Y] (H-VRRFPYYYPFLRR-NH2) | 16 µM (≈ 29.3 µg/mL) | 1 µmol/L | 2 µmol/L | 1 µM (≈ 1.83 µg/mL) | 2 µM (≈ 3.66 µg/mL) | >64 µM | >64 µM | 2 µmol/L | 8 µmol/L | >64 µM | >64 µM | 128 µmol/L | >64 µmol/L | >128 µmol/L | >128 µmol/L | >128 µmol/L | >128 µmol/L | >128 µmol/L | >64 µmol/L | >64 µmol/L | MBIC (CV at 595 nm) LD50 (P. aeruginosa PAO1 [7]; [12]): >64 µmol/L
3 | VRRFP(hW)(hW)(hW)PFLRR-NH2 [Tritrp-W678hW, Tritrp analog with hydroxy-Trp in place of the three Trp] | 16 µM | 2 µmol/L | 4 µmol/L | 2 µM | 4 µM | 32 µM | 64 µM | 4 µmol/L | 8 µmol/L | >64 µM | >64 µM | – | >64 µmol/L | >128 µmol/L | >128 µmol/L | >128 µmol/L | >128 µmol/L | >128 µmol/L | 16 µmol/L | 64 µmol/L | MBIC (CV at 595 nm) LD50 (P. aeruginosa PAO1 [7]; [12]): 32 µmol/L; MBRC (CV at 595 nm) LD50 (P. aeruginosa PAO1 [7]; [13]): >128 µmol/L
